# According to patent US5962487A, “Antipicornaviral compounds and methods for their use and preparation” (Agouron Pharmaceuticals, Inc., priority 1997, dated 1999):
# Assays:
# ENT-70 = assay: Enterovirus-70 MRC5 Cell Culture Assay; format: cell-based, Enterovirus strain 70
# Method: (§1) The Echovirus strain 11 (ECHO-11) and Enterovirus strain 70 (ENT-70) were purchased from American Type Culture Collection (ATCC). Virus stocks were propagated and antiviral assays were performed in MRC5 cells (ATCC). Cells were grown in Minimal Essential Medium with 10% fetal bovine serum.
# (§2) The ability of compounds to protect cells against ECHO-11 or ENT-70 infection was measured by the XTT dye reduction method. Briefly, MRC5 cells were infected with ECHO-11 or ENT-70 at a multiplicity of infection (m.o.i.) of 0.0013 (ECHO-11) and 0.0017 (ENT-70) or mock-infected with medium only. Infected or uninfected cells were resuspended at 2×10^4 cells per mL and incubated with appropriate concentrations of drug. One day later, XTT/PMS was added to test plates, and the amount of formazan produced was quantified spectrophotometrically at 450/650 nm. The EC50 was calculated as the concentration of drug that increased the percentage of formazan production in drug-treated, virus-infected cells to 50% of that produced by drug-free, uninfected cells. The 50% cytotoxic dose (CC50) was calculated as the concentration of drug that decreased the percentage of formazan produced in drug-treated, uninfected cells to 50% of that produced in drug-free, uninfected cells. The therapeutic index (TI) was calculated by dividing the CC50 by the EC50.
# in vitro = format: cell-based; conditions: human, mrc5 cells
# Method: as §1, §2
# MRC5 cells = assay: in vitro; format: cell-based
# Method: as §1, §2
# HRV-14 = assay: Antirhinoviral HI-HeLa Cell Culture Assay (cell protection, XTT), HRV-14; format: cell-based, human rhinovirus
# Summary of the method: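 HI-HeLa cells infected at m.o.i. 0.13 (or mock-infected), 8×10^5 cells/mL, incubated with compounds for two days; XTT/PMS formazan read at 450/650 nm. EC50 is the concentration restoring formazan in infected cells to 50% of compound-free mock-infected; CC50 is 50% decrease in mock-infected cells; TI = CC50/EC50.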
# CVA-21 = assay: Anticoxsackieviral HI-HeLa Cell Culture Assay, CVA-21; format: cell-based, Coxsackie strain A-21
# Method: as §2, with “CVA-21” for “ECHO-11”, “CVB-3” for “ENT-70”, “HI-HeLa” for “MRC5”, “0.05 (CVA-21)” for “0.0013 (ECHO-11)”, “0.08 (CVB-3)” for “0.0017 (ENT-70)”, “4×10^4” for “2×10^4”
# The Coxsackie strains A-21 (CVA-21) and B-3 (CVB-3) were purchased from American Type Culture Collection (ATCC). Virus stocks were propagated and antiviral assays were performed in HI-HeLa cells (ATCC). Cells were grown in Minimal Essential Medium with 10% fetal bovine serum.
compound,measurement,setting,value
"CCOC(=O)/C=C/[C@H](CCC(N)=O)NC(=O)[C@H](Cc1ccccc1)N(C)C(=O)[C@H](CC(C)C)NC(=O)OCc1ccccc1 [Compound 2, Ethyl-3-(CBZ-L-Leu-L-N-Me-Phe-L-Gln)-E-Propenoate]",TI,"ENT-70; CC50/EC50, ENT-70, 1440 min",93
same,EC50,"ENT-70; Enterovirus, 24 h, ENT-70 infection of MRC5 cells, XTT, one day",0.6 µM
same,CC50 at 24 h,in vitro,56 µM
same,CC50,MRC5 cells,56 µM
same,TI,"HRV-14; CC50/EC50, HRV serotype-14, 2880 min",56
same,EC50,"HRV-14; Rhinovirus B, HRV14, 48 h, HRV serotype-14 infected HI-HeLa cells, XTT, two days",1 µM
same,EC50,"CVA-21; 24 h, CVA-21 infection of Hi-HeLa cells, XTT, one day",3.3 µM
same,TI,"CVA-21; CC50/EC50, CVA-21",17
